From US6683072B1, “Compositions and methods for treatment of irritable bowel syndrome and nonulcer dyspepsia” (Vela Pharmaceuticals, Inc., priority 2003, dated 2004)

System: colonic propulsive motility in mice
Experiment: Glass bead test of colonic propulsive motility in mice
Details: for Expulsion Time (min.) Mean ± SEM: 3 mm glass bead inserted 30 min after dosing, female Swiss Webster mice

Row | Structure (SMILES) | Expulsion Time (min.) Mean ± SEM (10 mg/kg PO) [min] | inhibition at 10 mg/kg (Mus musculus, po) [%] | Expulsion Time (min.) Mean ± SEM (30 mg/kg PO) [min] | effect compared with 10 mg/kg dose of loperamide (30 mg/kg tianeptine PO) | Expulsion Time (min.) Mean ± SEM (60 mg/kg PO) [min] | effect on colonic propulsion (in words) (10, 30 and 60 mg/kg PO) | inhibition at 30 mg/kg (Mus musculus, po) [%] | inhibition at 60 mg/kg (Mus musculus, po) [%]
1 | CN(C)C(=O)C(CCN1CCC(O)(c2ccc(Cl)cc2)CC1)(c1ccccc1)c1ccccc1 [loperamide] | 26.0 ± 2.6 | 81 |  |  |  |  |  | 
2 | CN1c2ccccc2C(NCCCCCCC(=O)O)c2ccc(Cl)cc2S1(=O)=O (stereo not shown) [tianeptine, 7-[(3-chloro-6,11-dihydro-6-methyl-dibenzo[c,f][1,2]thiazepin-11-yl)amino] heptanoic acid S,S-dioxide] | 16.6 ± 3.6 | 38 | 25.7 ± 2.3 | equivalent in effect to a 10 mg/kg dose of loperamide | 29.8 ± 0.2 | dose-related inhibition of colonic propulsion | 80 | 98
